According to patent US20070128217A1 (priority 2003, published 2007):

What was measured:
[1] = test system: antibodies in sera from SARS patients (sera 1a, 1b, 2, 6, 37, 62, London, SARS-yellow, SARS-green); assay type: binding, human; set-up: Binding of serum 6 to linear peptides of protein X1 of SARS-CoV Urbani / Binding of serum 37 to linear peptides of protein X1 of SARS-CoV Urbani / Binding of serum 6 to looped/cyclic peptide (PEPSCAN-ELISA) / Binding of serum 37 to looped/cyclic peptide (PEPSCAN-ELISA) / Binding of serum 37 to looped/cyclic peptides of protein X1 of SARS-CoV Urbani / Binding of serum 6 to linear peptides of protein X2 / Binding of serum 37 to linear peptides of protein X2 / Binding of serum 37 to looped/cyclic peptides of protein X2 of SARS-CoV Urbani / Binding of serum 6 to linear peptides of protein M of SARS-CoV Urbani / Binding of serum 37 to linear peptides of protein M of SARS-CoV Urbani / Binding of serum 6 to looped/cyclic peptides of protein M of SARS-CoV Urbani / Binding of serum 37 to looped/cyclic peptides of protein M of SARS-CoV Urbani / Binding of serum 6 to linear peptides of protein X3 of SARS-CoV Urbani / Binding of serum 37 to linear peptides of protein X3 of SARS-CoV Urbani / Binding of serum 37 to looped/cyclic peptides of protein X3 of SARS-CoV Urbani / Binding of serum 6 to linear peptides of protein X4 of SARS-CoV Urbani / Binding of serum 37 to linear peptides of protein X4 of SARS-CoV Urbani / Binding of serum 37 to looped/cyclic peptides of protein X4 of SARS-CoV Urbani / Binding of serum 6 to linear peptides of protein X5 of SARS-CoV Urbani / Binding of serum 37 to linear peptides of protein X5 of SARS-CoV Urbani / Binding of serum 37 to looped/cyclic peptides of protein X5 of SARS-CoV Urbani / Binding of serum 6 to linear peptides of protein N of SARS-CoV Urbani / Binding of serum 37 to linear peptides of protein N of SARS-CoV Urbani / Binding of serum 6 to linear peptide (PEPSCAN-ELISA) / Binding of serum 1a to looped/cyclic peptides of protein N of SARS-CoV Urbani / Binding of serum 1b to looped/cyclic peptides of protein N of SARS-CoV Urbani / Binding of serum 2 to looped/cyclic peptides of protein N of SARS-CoV Urbani / Binding of serum 6 to looped/cyclic peptides of protein N of SARS-CoV Urbani / Binding of serum 37 to looped/cyclic peptides of protein N of SARS-CoV Urbani / Binding of serum 62 to looped/cyclic peptides of protein N of SARS-CoV Urbani / Binding of serum London to looped/cyclic peptides of protein N of SARS-CoV Urbani / Binding of serum SARS-green to looped/cyclic peptides of protein N of SARS-CoV Urbani: unit not given here
[2] = test system: control sera (pooled serum of ten healthy LUMC hospital workers; commercial negative donor pooled serum from the Dutch bloodbank); assay type: binding, human; set-up: Binding of Control serum LUMC to linear peptides / Binding of Control serum Blood-bank to linear peptides / Binding of Control serum LUMC to looped peptides / Binding of Control Serum Blood-Bank to Looped peptides / Binding of Control serum LUMC to linear peptides of the protein M of SARS-CoV Urbani / Binding of Control serum Blood-bank to linear peptides of the protein M of SARS-CoV Urbani / Binding of Control serum LUMC to looped peptides of the protein M of SARS-CoV Urbani / Binding of Control Serum Blood-Bank to Looped peptides of the protein M of SARS-CoV Urbani: unit not given here
[3] = test system: rabbit serum obtained by immunizing a rabbit with the SARS-CoV strain Frankfurt 1; assay type: binding; set-up: Binding of a rabbit serum to linear peptides / Binding of a rabbit serum to looped peptides / Rabbit serum linear peptides / Rabbit serum looped peptides / Binding of a rabbit serum to linear peptides of protein N of SARS-CoV Urbani (Rabbit serum linear peptides) / Binding of a rabbit serum to looped/cyclic peptides of protein N of SARS-CoV Urbani (Rabbit serum looped peptides): unit not given here

VTRPLMESELVIGAV
Binding of serum 1a to linear peptides of protein M of SARS-CoV Urbani [1]: 0.8 | Binding of serum 1b to linear peptides of protein M of SARS-CoV Urbani [1]: 0.6 | Binding of serum 2 to linear peptides of protein M of SARS-CoV Urbani [1]: 0.9 | Binding of serum 6 to linear peptides of protein M of SARS-CoV Urbani [1]: 0.2 | Binding of serum 37 to linear peptides of protein M of SARS-CoV Urbani [1]: 1.0 | Binding of serum 62 to linear peptides of protein M of SARS-CoV Urbani [1]: 0.9 | Binding of serum London to linear peptides of protein M of SARS-CoV Urbani [1]: 0.3 | Binding of serum SARS-green to linear peptides of protein M of SARS-CoV Urbani [1]: 0.3 | Binding of serum SARS-yellow to linear peptides of protein M of SARS-CoV Urbani [1]: 0.1 | Recognition of the peptide by sera of SARS-CoV infected individuals, and form (linear, looped/cyclic) in which it is recognized [1]: recognized in looped/cyclic form | Binding of Control Serum Blood-Bank to Looped peptides of the protein M of SARS-CoV Urbani [2]: 0.9 | Binding of Control serum Blood-bank to linear peptides of the protein M of SARS-CoV Urbani [2]: 0.6 | Binding of Control serum LUMC to linear peptides of the protein M of SARS-CoV Urbani [2]: 0.4 | Binding of Control serum LUMC to looped peptides of the protein M of SARS-CoV Urbani [2]: 1.0 | Rabbit serum linear peptides [3]: 0.4 | Rabbit serum looped peptides [3]: 0.2

VVTEGDGISTPKLKE
Binding of serum 1a to linear peptides of protein X1 of SARS-CoV Urbani [1]: 0.5 | Binding of serum 1a to looped/cyclic peptides of protein X1 of SARS-CoV Urbani [1]: 0.3 | Binding of serum 1b to linear peptides of protein X1 of SARS-CoV Urbani [1]: 0.4 | Binding of serum 1b to looped/cyclic peptides of protein X1 of SARS-CoV Urbani [1]: 0.3 | Binding of serum 2 to linear peptides of protein X1 of SARS-CoV Urbani [1]: 0.3 | Binding of serum 2 to looped/cyclic peptides of protein X1 of SARS-CoV Urbani [1]: 0.1 | Binding of serum 6 to linear peptides of protein X1 of SARS-CoV Urbani [1]: 0.2 | Binding of serum 6 to looped/cyclic peptides of protein X1 of SARS-CoV Urbani [1]: 0.2 | Binding of serum 37 to linear peptides of protein X1 of SARS-CoV Urbani [1]: 0.4 | Binding of serum 37 to looped/cyclic peptides of protein X1 of SARS-CoV Urbani [1]: 0.3 | Binding of serum 62 to linear peptides of protein X1 of SARS-CoV Urbani [1]: 0.3 | Binding of serum 62 to looped/cyclic peptides of protein X1 of SARS-CoV Urbani [1]: 0.3 | Binding of serum London to linear peptides of protein X1 of SARS-CoV Urbani [1]: 0.3 | Binding of serum London to looped/cyclic peptides of protein X1 of SARS-CoV Urbani [1]: 0.2 | Binding of serum SARS-green to linear peptides of protein X1 of SARS-CoV Urbani [1]: 0.1 | Binding of serum SARS-green to looped/cyclic peptides of protein X1 of SARS-CoV Urbani [1]: 0.1 | Binding of serum SARS-yellow to linear peptides of protein X1 of SARS-CoV Urbani [1]: 0.1 | Binding of serum SARS-yellow to looped/cyclic peptides of protein X1 of SARS-CoV Urbani [1]: 0.2 | Binding of Control Serum Blood-Bank to Looped peptides [2]: 0.3 | Binding of Control serum Blood-bank to linear peptides [2]: 0.3 | Binding of Control serum LUMC to linear peptides [2]: 0.2 | Binding of Control serum LUMC to looped peptides [2]: 0.3 | Binding of a rabbit serum to linear peptides [3]: 0.1 | Binding of a rabbit serum to looped peptides [3]: 0.4

VYYQLESTQITTDTG
Binding of serum 1a to linear peptides of protein X1 of SARS-CoV Urbani [1]: 0.6 | Binding of serum 1a to looped/cyclic peptides of protein X1 of SARS-CoV Urbani [1]: 0.4 | Binding of serum 1b to linear peptides of protein X1 of SARS-CoV Urbani [1]: 0.5 | Binding of serum 1b to looped/cyclic peptides of protein X1 of SARS-CoV Urbani [1]: 0.2 | Binding of serum 2 to linear peptides of protein X1 of SARS-CoV Urbani [1]: 0.4 | Binding of serum 2 to looped/cyclic peptides of protein X1 of SARS-CoV Urbani [1]: 0.1 | Binding of serum 6 to linear peptides of protein X1 of SARS-CoV Urbani [1]: 0.4 | Binding of serum 6 to looped/cyclic peptides of protein X1 of SARS-CoV Urbani [1]: 0.1 | Binding of serum 37 to linear peptides of protein X1 of SARS-CoV Urbani [1]: 0.6 | Binding of serum 37 to looped/cyclic peptides of protein X1 of SARS-CoV Urbani [1]: 0.4 | Binding of serum 62 to linear peptides of protein X1 of SARS-CoV Urbani [1]: 0.5 | Binding of serum 62 to looped/cyclic peptides of protein X1 of SARS-CoV Urbani [1]: 0.3 | Binding of serum London to linear peptides of protein X1 of SARS-CoV Urbani [1]: 0.2 | Binding of serum London to looped/cyclic peptides of protein X1 of SARS-CoV Urbani [1]: 0.2 | Binding of serum SARS-green to linear peptides of protein X1 of SARS-CoV Urbani [1]: 0.2 | Binding of serum SARS-green to looped/cyclic peptides of protein X1 of SARS-CoV Urbani [1]: 0.2 | Binding of serum SARS-yellow to linear peptides of protein X1 of SARS-CoV Urbani [1]: 0.3 | Binding of serum SARS-yellow to looped/cyclic peptides of protein X1 of SARS-CoV Urbani [1]: 0.1 | Binding of Control Serum Blood-Bank to Looped peptides [2]: 0.3 | Binding of Control serum Blood-bank to linear peptides [2]: 0.4 | Binding of Control serum LUMC to linear peptides [2]: 0.4 | Binding of Control serum LUMC to looped peptides [2]: 0.3 | Binding of a rabbit serum to linear peptides [3]: 0.1 | Binding of a rabbit serum to looped peptides [3]: 0.5

WIMLLQFAYSNRNRF
Binding of serum 1a to linear peptides of protein M of SARS-CoV Urbani [1]: 0.6 | Binding of serum 1a to looped/cyclic peptides of protein M of SARS-CoV Urbani [1]: 0.7 | Binding of serum 1b to linear peptides of protein M of SARS-CoV Urbani [1]: 0.5 | Binding of serum 1b to looped/cyclic peptides of protein M of SARS-CoV Urbani [1]: 0.6 | Binding of serum 2 to linear peptides of protein M of SARS-CoV Urbani [1]: 0.5 | Binding of serum 2 to looped/cyclic peptides of protein M of SARS-CoV Urbani [1]: 0.4 | Binding of serum 6 to linear peptides of protein M of SARS-CoV Urbani [1]: 0.3 | Binding of serum 6 to looped/cyclic peptides of protein M of SARS-CoV Urbani [1]: 0.8 | Binding of serum 37 to linear peptides of protein M of SARS-CoV Urbani [1]: 0.7 | Binding of serum 37 to looped/cyclic peptides of protein M of SARS-CoV Urbani [1]: 0.4 | Binding of serum 62 to linear peptides of protein M of SARS-CoV Urbani [1]: 0.7 | Binding of serum 62 to looped/cyclic peptides of protein M of SARS-CoV Urbani [1]: 0.6 | Binding of serum London to linear peptides of protein M of SARS-CoV Urbani [1]: 0.3 | Binding of serum London to looped/cyclic peptides of protein M of SARS-CoV Urbani [1]: 0.2 | Binding of serum SARS-green to linear peptides of protein M of SARS-CoV Urbani [1]: 0.3 | Binding of serum SARS-green to looped/cyclic peptides of protein M of SARS-CoV Urbani [1]: 0.2 | Binding of serum SARS-yellow to linear peptides of protein M of SARS-CoV Urbani [1]: 0.1 | Binding of serum SARS-yellow to looped/cyclic peptides of protein M of SARS-CoV Urbani [1]: 0.3 | Binding of Control Serum Blood-Bank to Looped peptides of the protein M of SARS-CoV Urbani [2]: 0.7 | Binding of Control serum Blood-bank to linear peptides of the protein M of SARS-CoV Urbani [2]: 0.7 | Binding of Control serum LUMC to linear peptides of the protein M of SARS-CoV Urbani [2]: 0.3 | Binding of Control serum LUMC to looped peptides of the protein M of SARS-CoV Urbani [2]: 0.7 | Rabbit serum linear peptides [3]: 0.8 | Rabbit serum looped peptides [3]: 0.3

WIQFMMSRRRLLACL
Binding of serum 1a to linear peptides of protein X2 [1]: 0.6 | Binding of serum 1a to looped/cyclic peptides of protein X2 of SARS-CoV Urbani [1]: 0.4 | Binding of serum 1b to linear peptides of protein X2 [1]: 0.4 | Binding of serum 1b to looped/cyclic peptides of protein X2 of SARS-CoV Urbani [1]: 0.3 | Binding of serum 2 to linear peptides of protein X2 [1]: 0.4 | Binding of serum 2 to looped/cyclic peptides of protein X2 of SARS-CoV Urbani [1]: 0.1 | Binding of serum 6 to linear peptides of protein X2 [1]: 0.5 | Binding of serum 6 to looped/cyclic peptides of protein X2 of SARS-CoV Urbani [1]: 0.3 | Binding of serum 37 to linear peptides of protein X2 [1]: 0.5 | Binding of serum 37 to looped/cyclic peptides of protein X2 of SARS-CoV Urbani [1]: 0.3 | Binding of serum 62 to linear peptides of protein X2 [1]: 0.6 | Binding of serum 62 to looped/cyclic peptides of protein X2 of SARS-CoV Urbani [1]: 0.3 | Binding of serum London to linear peptides of protein X2 [1]: 0.5 | Binding of serum London to looped/cyclic peptides of protein X2 of SARS-CoV Urbani [1]: 0.3 | Binding of serum SARS-green to linear peptides of protein X2 [1]: 0.5 | Binding of serum SARS-green to looped/cyclic peptides of protein X2 of SARS-CoV Urbani [1]: 0.2 | Binding of serum SARS-yellow to linear peptides of protein X2 [1]: 0.7 | Binding of serum SARS-yellow to looped/cyclic peptides of protein X2 of SARS-CoV Urbani [1]: 0.4 | Binding of Control Serum Blood-Bank to Looped peptides [2]: 0.3 | Binding of Control serum Blood-bank to linear peptides [2]: 0.6 | Binding of Control serum LUMC to linear peptides [2]: 0.4 | Binding of Control serum LUMC to looped peptides [2]: 0.3 | Binding of a rabbit serum to linear peptides [3]: 0.5 | Binding of a rabbit serum to looped peptides [3]: 1.3
